Reference: patent US8148367B2 (Takeda Pharmaceutical Company Limited, priority 2008, dated 2012)

Target: T1, Recombinant human renin (Homo sapiens, UniProt P00797)
T1 construct: isolate the active form (residues 67-406); made in house; host or cells: FreeStyle 293-F cells, transient expression of pcDNA3.1(+)/hREN
T1 sequence (P00797 67-406): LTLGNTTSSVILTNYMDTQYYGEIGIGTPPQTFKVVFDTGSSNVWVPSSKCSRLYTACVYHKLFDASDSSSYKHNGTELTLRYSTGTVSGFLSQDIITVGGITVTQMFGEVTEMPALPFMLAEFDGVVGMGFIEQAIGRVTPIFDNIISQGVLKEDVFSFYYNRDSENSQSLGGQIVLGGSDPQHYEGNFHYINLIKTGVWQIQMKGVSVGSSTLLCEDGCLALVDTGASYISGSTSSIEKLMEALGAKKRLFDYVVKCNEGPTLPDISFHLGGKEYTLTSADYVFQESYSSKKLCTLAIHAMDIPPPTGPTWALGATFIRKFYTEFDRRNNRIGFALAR
Assay: In vitro enzymatic activity assay of renin inhibitors (fluorescence, QXL520/HiLyteFluo488 peptide substrate)
Type: biochemical
Settings: recombinant human renin 3 nM, 1 μM substrate, pre-incubated 10 minutes at 37° C., incubation one hour, pH 7.4, 5% DMSO; read-out: IC50 of Exemplified Compounds Against Renin

**Q.** For `COCCOc1cccc(-n2c(-c3cccc(Cl)c3)c(C(=O)N3CCNCC3)[nH]c2=O)c1` [Example 43, 5-(3-Chlorophenyl)-1-(3-(2-methoxyethoxy)phenyl)-4-(piperazine-1-carbonyl)-1H-imidazol-2(3H)-one], which IC50 is on record?
**A.** > 1000 nM

**Q.** How did the IC50 turn out when `O=C(c1[nH]c(=O)n(-c2nc3ccccc3[nH]2)c1-c1ccccc1)N1CCNCC1` [Example 44, 1-(1H-benzo[d]imidazol-2-yl)-5-phenyl-4-(piperazine-1-carbonyl)-1H-imidazol-2(3H)-one] was run?
**A.** > 1000 nM

**Q.** How did the IC50 turn out when `O=C(c1c(-c2ccccc2)n(-c2ccccc2)c(=O)n1Cc1ccccc1)N1CCNCC1` [Example 45, 1-Benzyl-3,4-diphenyl-5-(piperazine-1-carbonyl)-1H-imidazol-2(3H)-one] was run?
**A.** 100 to 500 nM

**Q.** `O=C(c1c(-c2ccccc2)n(-c2ccccn2)c(=O)n1Cc1ccccc1)N1CCNCC1` [Example 46, 1-Benzyl-4-phenyl-5-(piperazine-1-carbonyl)-3-(pyridin-2-yl)-1H-imidazol-2(3H)-one] was tested. Which IC50 did it give?
**A.** > 1000 nM

**Q.** For `Cc1cc(Cn2c(C(=O)N3CCNCC3)c(-c3ccccc3)n(-c3ccccc3)c2=O)no1` [Example 47, 1-((5-Methylisoxazol-3-yl)methyl)-3,4-diphenyl-5-(piperazine-1-carbonyl)-1H-imidazol-2(3H)-one], which IC50 is on record?
**A.** > 1000 nM

**Q.** `O=C(c1c(-c2ccccc2)n(-c2ccccc2)c(=O)n1Cc1nnc(C2CC2)s1)N1CCNCC1` [Example 48, 1-((5-Cyclopropyl-1,3,4-thiadiazol-2-yl)methyl)-3,4-diphenyl-5-(piperazine-1-carbonyl)-1H-imidazol-2(3H)-one] was tested. Which IC50 did it give?
**A.** > 1000 nM

**Q.** For `O=C(c1c(-c2ccccc2)n(-c2ccccc2)c(=O)n1Cc1c[nH]cn1)N1CCNCC1` [Example 49, 1-((1H-Imidazol-4-yl)methyl)-3,4-diphenyl-5-(piperazine-1-carbonyl)-1H-imidazol-2(3H)-one], which IC50 is on record?
**A.** > 1000 nM

**Q.** How did the IC50 turn out when `Nc1nc(Cn2c(C(=O)N3CCNCC3)c(-c3ccccc3)n(-c3ccccc3)c2=O)cs1` [Example 50, 1-((2-Aminothiazol-4-yl)methyl)-3,4-diphenyl-5-(piperazine-1-carbonyl)-1H-imidazol-2(3H)-one] was run?
**A.** 500 to 1000 nM

**Q.** `O=C(c1c(-c2ccccc2)n(-c2ccccc2)c(=O)n1Cc1cccc(F)c1)N1CCNCC1` [Example 51, 1-(3-Fluorobenzyl)-3,4-diphenyl-5-(piperazine-1-carbonyl)-1H-imidazol-2(3H)-one] was tested. Which IC50 did it give?
**A.** 100 to 500 nM

**Q.** For `O=C(c1c(-c2ccccc2)n(-c2ccccc2)c(=O)n1Cc1ccc(F)c(F)c1)N1CCNCC1` [Example 52, 1-(3,4-Difluorobenzyl)-3,4-diphenyl-5-(piperazine-1-carbonyl)-1H-imidazol-2(3H)-one], which IC50 is on record?
**A.** 100 to 500 nM

**Q.** How did the IC50 turn out when `O=C(c1c(-c2ccccc2)n(-c2ccccc2)c(=O)n1CC1CCOCC1)N1CCNCC1` [Example 53, 1,5-Diphenyl-4-(piperazine-1-carbonyl)-3-((tetrahydro-2H-pyran-4-yl)methyl)-1H-imidazol-2(3H)-one] was run?
**A.** > 1000 nM

**Q.** Which IC50 does the source give for `Cn1c(C(=O)N2CCNCC2)c(-c2ccccc2)n(-c2ccccc2)c1=O` [Example 54, 1-Methyl-3,4-diphenyl-5-(piperazine-1-carbonyl)-1H-imidazol-2(3H)-one] here?
**A.** > 1000 nM

**Q.** Which IC50 does the source give for `Cn1c(C(=O)N2CCNC[C@H]2Cc2ccccc2)c(-c2ccccc2)n(-c2cccc(N3CCOCC3)c2)c1=O` [Example 55, (R)-4-(2-Benzylpiperazine-1-carbonyl)-3-methyl-1-(3-morpholinophenyl)-5-phenyl-1H-imidazol-2(3H)-one] here?
**A.** 100 to 500 nM

**Q.** How did the IC50 turn out when `O=C(c1c(-c2ccccc2)n(-c2cccc(N3CCOCC3)c2)c(=O)n1Cc1ccccc1)N1CCNCC1` [Example 56, 1-Benzyl-3-(3-morpholinophenyl)-4-phenyl-5-(piperazine-1-carbonyl)-1H-imidazol-2(3H)-one] was run?
**A.** 100 to 500 nM

**Q.** `O=C(c1cccc(Cn2c(C(=O)N3CCNCC3)c(-c3ccccc3)n(-c3cccc(N4CCOCC4)c3)c2=O)c1)N1CCOCC1` [Example 57, 1-(3-(Morpholine-4-carbonyl)benzyl)-3-(3-morpholinophenyl)-4-phenyl-5-(piperazine-1-carbonyl)-1H-imidazol-2(3H)-one] was tested. Which IC50 did it give?
**A.** > 1000 nM

**Q.** How did the IC50 turn out when `O=C(c1cccc(Cn2c(C(=O)N3CCNCC3)c(-c3ccccc3)n(-c3cccc(N4CCOCC4)c3)c2=O)c1)N1CCCCC1` [Example 58, 1-(3-Morpholinophenyl)-5-phenyl-4-(piperazine-1-carbonyl)-3-(3-(piperidine-1-carbonyl)benzyl)-1H-imidazol-2(3H)-one] was run?
**A.** > 1000 nM

**Q.** How did the IC50 turn out when `O=C(O)COc1cccc(Cn2c(C(=O)N3CCNCC3)c(-c3ccccc3)n(-c3cccc(N4CCOCC4)c3)c2=O)c1` [Example 59, 2-(3-((3-(3-Morpholinophenyl)-2-oxo-4-phenyl-5-(piperazine-1-carbonyl)-2,3-dihydro-1H-imidazol-1-yl)methyl)phenoxy)acetic acid] was run?
**A.** > 1000 nM

**Q.** For `Cn1c(C(=O)N2CCNCC2)c(-c2ccccc2)n(C2CCCCC2)c1=O` [Example 60, 1-Cyclohexyl-3-methyl-5-phenyl-4-(piperazine-1-carbonyl)-1H-imidazol-2(3H)-one], which IC50 is on record?
**A.** > 1000 nM

**Q.** How did the IC50 turn out when `CC(C)NC(=O)NCCCn1c(C(=O)N2CCNCC2)c(-c2ccccc2)n(-c2cccc(N3CCOCC3)c2)c1=O` [Example 61, 1-Isopropyl-3-(3-(3-(3-morpholinophenyl)-2-oxo-4-phenyl-5-(piperazine-1-carbonyl)-2,3-dihydro-1H-imidazol-1-yl)propyl)urea] was run?
**A.** > 1000 nM

**Q.** How did the IC50 turn out when `C=CCn1c(C(=O)N2CCNCC2)c(-c2ccccc2)n(C2CCCCC2)c1=O` [Example 62, 1-Allyl-3-cyclohexyl-4-phenyl-5-(piperazine-1-carbonyl)-1H-imidazol-2(3H)-one] was run?
**A.** > 1000 nM

**Q.** For `NC(=O)Cn1c(C(=O)N2CCNCC2)c(-c2ccccc2)n(C2CCCCC2)c1=O` [Example 63, 2-(3-Cyclohexyl-2-oxo-4-phenyl-5-(piperazine-1-carbonyl)-2,3-dihydro-1H-imidazol-1-yl)acetamide], which IC50 is on record?
**A.** > 1000 nM

**Q.** `C=CCn1c(C(=O)N2CCNC[C@H]2Cc2ccccc2)c(-c2ccccc2)n(C2CCCCC2)c1=O` [Example 64, (R)-1-Allyl-5-(2-benzylpiperazine-1-carbonyl)-3-cyclohexyl-4-phenyl-1H-imidazol-2(3H)-one] was tested. Which IC50 did it give?
**A.** < 100 nM

**Q.** With `Cn1c(C(=O)N2CCNC[C@H]2Cc2ccccc2)c(-c2ccccc2)n(C2CCCCC2)c1=O` [Example 65, (R)-4-(2-Benzylpiperazine-1-carbonyl)-1-cyclohexyl-3-methyl-5-phenyl-1H-imidazol-2(3H)-one] as the molecule, how does the IC50 read?
**A.** < 100 nM

**Q.** How did the IC50 turn out when `COCCn1c(C(=O)N2CCNC[C@H]2Cc2ccccc2)c(-c2ccccc2)n(C2CCCCC2)c1=O` [Example 66, (R)-4-(2-Benzylpiperazine-1-carbonyl)-1-cyclohexyl-3-(2-methoxyethyl)-5-phenyl-1H-imidazol-2(3H)-one] was run?
**A.** < 100 nM

**Q.** With `NC(=O)Cn1c(C(=O)N2CCNC[C@H]2Cc2ccccc2)c(-c2ccccc2)n(C2CCCCC2)c1=O` [Example 67, (R)-2-(5-(2-Benzylpiperazine-1-carbonyl)-3-cyclohexyl-2-oxo-4-phenyl-2,3-dihydro-1H-imidazol-1-yl)acetamide] as the molecule, how does the IC50 read?
**A.** 100 to 500 nM

**Q.** Which IC50 does the source give for `COC(=O)C(c1ccccc1)n1c(C(=O)N2CCNCC2)c(-c2ccccc2)n(C2CCCCC2)c1=O` (stereo not drawn) [Example 68, Methyl 2-(3-cyclohexyl-2-oxo-4-phenyl-5-(piperazine-1-carbonyl)-2,3-dihydro-1H-imidazol-1-yl)-2-phenylacetate] here?
**A.** > 1000 nM

**Q.** `CC(c1ccccc1)n1c(C(=O)N2CCNCC2)c(-c2ccccc2)n(C2CCCCC2)c1=O` (stereo not drawn) [Example 69, 1-Cyclohexyl-5-phenyl-3-(1-phenylethyl)-4-(piperazine-1-carbonyl)-1H-imidazol-2(3H)-one] was tested. Which IC50 did it give?
**A.** 100 to 500 nM

**Q.** Which IC50 does the source give for `O=C(c1c(-c2ccccc2)n(C2CCCCC2)c(=O)n1CCc1ccccc1)N1CCNCC1` [Example 71, 1-Cyclohexyl-3-phenethyl-5-phenyl-4-(piperazine-1-carbonyl)-1H-imidazol-2(3H)-one] here?
**A.** 100 to 500 nM

**Q.** How did the IC50 turn out when `O=C(c1c(-c2ccccc2)n(C2CCCCC2)c(=O)n1Cc1cccc(-n2cccc2)c1)N1CCNCC1` [Example 72, 1-(3-(1H-Pyrrol-1-yl)benzyl)-3-cyclohexyl-4-phenyl-5-(piperazine-1-carbonyl)-1H-imidazol-2(3H)-one] was run?
**A.** 100 to 500 nM

**Q.** How did the IC50 turn out when `Cc1ccccc1-n1c(-c2ccccc2)c(C(=O)N2CCNCC2)n(Cc2cccc(OCCOc3ccccc3)c2)c1=O` [Example 73, 1-(3-(2-Phenoxyethoxy)benzyl)-4-phenyl-5-(piperazine-1-carbonyl)-3-o-tolyl-1H-imidazol-2(3H)-one] was run?
**A.** 100 to 500 nM

**Q.** How did the IC50 turn out when `O=C(c1c(-c2ccccc2)n(-c2cccc(N3CCOCC3)c2)c(=O)n1Cc1cccc(Oc2ccccc2)c1)N1CCNCC1` [Example 74, 1-(3-Morpholinophenyl)-3-(3-phenoxybenzyl)-5-phenyl-4-(piperazine-1-carbonyl)-1H-imidazol-2(3H)-one] was run?
**A.** < 100 nM

**Q.** For `COCCCOc1cccc(-n2c(-c3ccccc3)c(C(=O)N3CCNCC3)n(Cc3cccc(Oc4ccccc4)c3)c2=O)c1` [Example 75, 1-(3-(3-Methoxypropoxy)phenyl)-3-(3-phenoxybenzyl)-5-phenyl-4-(piperazine-1-carbonyl)-1H-imidazol-2(3H)-one], which IC50 is on record?
**A.** < 100 nM

**Q.** How did the IC50 turn out when `O=C(c1c(-c2ccccc2)n(-c2cccc(N3CCOCC3)c2)c(=O)n1Cc1cccc(OCc2ccccc2)c1)N1CCNCC1` [Example 76, 1-(3-(Benzyloxy)benzyl)-3-(3-morpholinophenyl)-4-phenyl-5-(piperazine-1-carbonyl)-1H-imidazol-2(3H)-one] was run?
**A.** < 100 nM
